Measurements reported in patent US6433003B1 (priority 1999, dated 2002).

Legend:
[1] = system: hyperhidrosis; conditions: human, in vivo
[2] = in vivo; cited from earlier work
[3] = system: gustatory sweating associated with diabetic autonomic neuropathy; conditions: in vivo; cited from earlier work
[4] = system: hyperhidrosis; conditions: in vivo; cited from earlier work
[5] = system: hyperhidrosis; conditions: in vivo; cited from earlier work; remark: listed apart in the source

Molecule	perspiration associated with the hyperhidrosis [1]	unwanted perspiration at the location where the glycopyrrolate is applied [1]	side effects [2]	gustatory sweating [3]	duration of reduction of the hyperhidrosis [4]	side effects [4]	benefit in hyperhidrosis [5]	duration of effect [5]
C[N+]1(C)CCC(OC(=O)C(O)(c2ccccc2)C2CCCC2)C1.[Br-] (centres unmarked) [glycopyrrolate]	reduction in the perspiration	reduces the unwanted perspiration	few side effects	prevented the gustatory sweating	up to 4 weeks	abdominal discomfort		
botulinum A neurotoxin [BOTOX]							statistically significant benefit	several months
